In ChEMBL document CHEMBL1126359, “Synthesis and pharmacological activity of rationally designed inhibitors of the leukotriene A4 hydrolase enzyme” (Bioorg Med Chem Lett, 1992):

Key:
HL-60 = assay: Inhibitory activity against calcium ionophore induced Leukotriene B4 biosynthesis by the promyelocytic leukemia cell line HL-60 at concentrations of 10e-6 M; A - good inhibitory activity; type: functional, cell-based; details: Homo sapiens
[1] = target: T1, Leukotriene A-4 hydrolase (Homo sapiens) (UniProt P09960); assay: Inhibition of Leukotriene B4 by inhibiting the conversion of Leukotriene A4 by a purified Leukotriene A4 hydrolase; IE - ineffective
T1 sequence (whole entry): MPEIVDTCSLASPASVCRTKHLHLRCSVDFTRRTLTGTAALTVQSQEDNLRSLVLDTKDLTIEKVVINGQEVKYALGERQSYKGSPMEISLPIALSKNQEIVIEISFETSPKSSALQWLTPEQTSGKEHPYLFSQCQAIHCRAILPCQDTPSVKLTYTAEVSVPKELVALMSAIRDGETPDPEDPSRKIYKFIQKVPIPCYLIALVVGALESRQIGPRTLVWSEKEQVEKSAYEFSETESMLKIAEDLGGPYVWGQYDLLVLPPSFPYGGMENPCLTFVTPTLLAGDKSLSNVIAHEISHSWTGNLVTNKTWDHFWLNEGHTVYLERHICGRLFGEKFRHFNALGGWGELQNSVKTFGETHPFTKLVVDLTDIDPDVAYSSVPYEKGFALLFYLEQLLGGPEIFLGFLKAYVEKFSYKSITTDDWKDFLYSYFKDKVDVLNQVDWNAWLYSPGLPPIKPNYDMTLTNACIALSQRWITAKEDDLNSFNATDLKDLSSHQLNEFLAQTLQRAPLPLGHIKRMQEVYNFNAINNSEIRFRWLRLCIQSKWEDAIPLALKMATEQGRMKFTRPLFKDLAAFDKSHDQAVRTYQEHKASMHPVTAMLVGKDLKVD

Row | Structure (SMILES) | Activity (HL-60) | Activity [1]
1 | CCCCCCCCCC/C=C/C1=C[C@@H]2CC[C@@]1(CCCC(=O)O)O2 | A | Ineffective
2 | CCCCCCCC/C=C\C=C\C1=C[C@@H]2CC[C@@]1(CCCC(=O)O)O2 | A | Ineffective
